{"source": "patent US20050227998A1", "about": "“Compositions and methods of decreasing nicotine withdrawal” (priority 2004, published 2005)", "origin": "cited, not measured here", "test_system": "monkeys"}
{"smiles": "CN1[C@@H]2C[C@@H](OC(=O)[C@H](CO)c3ccccc3)C[C@H]1[C@@H]1O[C@@H]12", "note": "[scopolamine, Scopolamine]", "values": [{"measurement": "smoking patterns", "result": "decreased"}]}
